Assay results published in ChEMBL document CHEMBL1201862, “PubChem BioAssay data set” (2004).
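How tested: cells in 96-well plates exposed to compound for 48 hours at five concentrations. GI50: concentration for 50% inhibition of growth.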 Active and inactive are the calls of the source. Cut-off read from the data, not from the text of the source: active = GI50 up to about 1.1 µM and inactive = higher.

Columns and labels:
Experiment in all cases: inhibition of tumour cell growth, NCI panel, 48 h
786-0 = tested on: 786-0
A549 = tested on: A549
ACHN = tested on: ACHN
CAKI-1 = tested on: CAKI-1
EKVX = tested on: EKVX
HCT-116 = tested on: HCT-116
IGROV-1 = tested on: IGROV-1
LOX IMVI = tested on: LOX IMVI
MOLT-4 = tested on: MOLT-4
OVCAR-4 = tested on: OVCAR-4
OVCAR-8 = tested on: OVCAR-8
SF-539 = tested on: SF-539
SK-MEL-2 = tested on: SK-MEL-2
SN12C = tested on: SN12C
SW-620 = tested on: SW-620
U-251 = tested on: U-251
HCC 2998 = tested on: HCC 2998

Measured: GI50

O=C1NC2(CCCC2)C(=O)C12CCCC2
inactive: 786-0 > 100 µM | A549 > 100 µM | ACHN > 100 µM | CAKI-1 > 100 µM | EKVX > 100 µM | HCT-116 > 100 µM | IGROV-1 > 100 µM | LOX IMVI > 100 µM | MOLT-4 > 100 µM | OVCAR-4 > 100 µM | OVCAR-8 > 100 µM | SF-539 > 100 µM | SK-MEL-2 > 100 µM | SN12C > 100 µM | SW-620 > 100 µM | U-251 > 100 µM

CCOC(=O)/C(=C/c1ccc(OC)cc1)N(CC)CC
inactive: 786-0 > 100 µM | A549 > 100 µM | ACHN > 100 µM | CAKI-1 > 100 µM | EKVX > 100 µM | HCC 2998 > 100 µM | HCT-116 > 100 µM | IGROV-1 > 100 µM | LOX IMVI > 100 µM | MOLT-4 > 100 µM | OVCAR-4 > 100 µM | OVCAR-8 > 100 µM | SF-539 > 100 µM | SK-MEL-2 > 100 µM | SN12C > 100 µM | SW-620 > 100 µM | U-251 > 100 µM

CN(C(=O)/C=C/c1ccccc1)C1C2CN3CCC(O2)C13 (stereo unspecified)
inactive: 786-0 > 100 µM | A549 > 100 µM | ACHN > 100 µM | CAKI-1 > 100 µM | EKVX > 100 µM | HCC 2998 > 100 µM | HCT-116 > 100 µM | IGROV-1 > 100 µM | LOX IMVI > 100 µM | MOLT-4 > 100 µM | OVCAR-4 > 100 µM | OVCAR-8 > 100 µM | SF-539 > 100 µM | SK-MEL-2 > 100 µM | SN12C > 100 µM | SW-620 > 100 µM | U-251 > 100 µM

FC(F)(F)C1(Cl)C(c2ccccc2)=C1c1ccccc1
inactive: 786-0 17 µM | A549 15.1 µM | ACHN 16.6 µM | CAKI-1 12.6 µM | EKVX 16.1 µM | HCC 2998 17.7 µM | HCT-116 13.9 µM | IGROV-1 15.5 µM | LOX IMVI 11.5 µM | MOLT-4 4.01 µM | OVCAR-4 13.5 µM | OVCAR-8 14.9 µM | SF-539 15.6 µM | SK-MEL-2 15 µM | SN12C 15.6 µM | SW-620 13.4 µM | U-251 14.7 µM

N[C@H](C(=O)O)[C@H](Cl)CC(=O)O
inactive: 786-0 > 100 µM | A549 > 100 µM | ACHN > 100 µM | CAKI-1 > 100 µM | EKVX > 100 µM | HCC 2998 > 100 µM | HCT-116 > 100 µM | IGROV-1 > 100 µM | LOX IMVI > 100 µM | MOLT-4 > 100 µM | OVCAR-4 > 100 µM | OVCAR-8 > 100 µM | SF-539 > 100 µM | SK-MEL-2 > 100 µM | SN12C > 100 µM | SW-620 > 100 µM | U-251 > 100 µM

N#CC1(Cc2ccccc2Cl)c2ccccc2C=CN1C(=O)c1ccccc1 (stereo unspecified)
inactive: 786-0 > 100 µM | A549 90.8 µM | ACHN 90.8 µM | EKVX > 100 µM | HCC 2998 > 100 µM | HCT-116 > 100 µM | IGROV-1 > 100 µM | LOX IMVI > 100 µM | MOLT-4 28.4 µM | OVCAR-8 > 100 µM | SF-539 > 100 µM | SK-MEL-2 > 100 µM | SN12C 77.8 µM | SW-620 > 100 µM | U-251 48.9 µM

CC1=C2CCCC2=C/C(=N/Nc2ccc([N+](=O)[O-])cc2[N+](=O)[O-])CC1
inactive: 786-0 > 100 µM | A549 > 100 µM | ACHN > 100 µM | CAKI-1 > 100 µM | EKVX > 100 µM | HCT-116 > 100 µM | IGROV-1 > 100 µM | LOX IMVI > 100 µM | MOLT-4 > 100 µM | OVCAR-4 > 100 µM | OVCAR-8 > 100 µM | SF-539 > 100 µM | SK-MEL-2 27.9 µM | SN12C > 100 µM | SW-620 > 100 µM | U-251 > 100 µM

CC(=O)N(C)OC(=O)CC(=O)c1ccccc1
inactive: 786-0 > 100 µM | A549 > 100 µM | ACHN > 100 µM | CAKI-1 > 100 µM | HCC 2998 > 100 µM | HCT-116 > 100 µM | IGROV-1 > 100 µM | LOX IMVI > 100 µM | MOLT-4 > 100 µM | OVCAR-4 > 100 µM | OVCAR-8 > 100 µM | SF-539 > 100 µM | SN12C > 100 µM | SW-620 > 100 µM | U-251 > 100 µM

CC(C)(C)NNC(=O)CCn1[nH]c(=O)c(Cl)c(Cl)c1=O
inactive: 786-0 > 100 µM | A549 > 100 µM | ACHN > 100 µM | CAKI-1 > 100 µM | EKVX > 100 µM | HCC 2998 > 100 µM | IGROV-1 > 100 µM | LOX IMVI > 100 µM | MOLT-4 > 100 µM | OVCAR-4 > 100 µM | OVCAR-8 > 100 µM | SF-539 > 100 µM | SK-MEL-2 > 100 µM | SN12C > 100 µM | SW-620 > 100 µM | U-251 > 100 µM

COc1cc2c(cc1OC)-c1c3cc(O)ccc3nn[n+]1CC2
inactive: 786-0 > 100 µM | A549 > 100 µM | EKVX > 100 µM | HCC 2998 > 100 µM | HCT-116 > 100 µM | IGROV-1 > 100 µM | LOX IMVI > 100 µM | MOLT-4 > 100 µM | OVCAR-4 > 100 µM | OVCAR-8 > 100 µM | SF-539 > 100 µM | SN12C > 100 µM | SW-620 > 100 µM | U-251 > 100 µM

O=C(CCc1n[nH]c(=S)o1)Nc1ccc(Cl)cc1Cl
inactive: 786-0 > 100 µM | A549 > 100 µM | ACHN > 100 µM | CAKI-1 > 100 µM | EKVX > 100 µM | HCC 2998 > 100 µM | HCT-116 33.9 µM | IGROV-1 > 100 µM | MOLT-4 > 100 µM | OVCAR-4 > 100 µM | OVCAR-8 > 100 µM | SF-539 > 100 µM | SN12C > 100 µM | SW-620 15.5 µM | U-251 > 100 µM

Cc1nc(=O)[nH]c2[nH][nH]c(=O)c12
inactive: 786-0 > 100 µM | A549 > 100 µM | ACHN > 100 µM | CAKI-1 > 100 µM | EKVX > 100 µM | HCT-116 > 100 µM | IGROV-1 > 100 µM | LOX IMVI > 100 µM | MOLT-4 > 100 µM | OVCAR-4 > 100 µM | OVCAR-8 > 100 µM | SF-539 > 100 µM | SK-MEL-2 > 100 µM | SN12C > 100 µM | SW-620 > 100 µM | U-251 > 100 µM

N#Cc1ccccc1Sc1ccccc1N
inactive: 786-0 > 100 µM | A549 67.3 µM | ACHN > 100 µM | CAKI-1 36 µM | EKVX 77.1 µM | IGROV-1 31.7 µM | LOX IMVI > 100 µM | MOLT-4 43.8 µM | OVCAR-4 64.4 µM | OVCAR-8 > 100 µM | SF-539 > 100 µM | SK-MEL-2 > 100 µM | SN12C 78.3 µM | SW-620 > 100 µM | U-251 > 100 µM
